Data reported in ChEMBL document CHEMBL1145261, “Design and synthesis of novel diphenacoum-derived, conformation-restricted vitamin K 2,3-epoxide reductase inhibitors” (Bioorg Med Chem Lett, 2005).

Biological target: T1, Vitamin K epoxide reductase complex subunit 1 (Bos taurus, UniProt Q6B4J2)
T1 sequence (Q6B4J2 whole entry): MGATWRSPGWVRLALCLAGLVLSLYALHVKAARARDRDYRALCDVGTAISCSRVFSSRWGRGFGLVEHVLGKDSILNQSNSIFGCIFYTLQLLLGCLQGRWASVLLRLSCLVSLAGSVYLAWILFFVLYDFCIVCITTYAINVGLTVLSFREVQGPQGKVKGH
Assay: Inhibitory concentration against beef liver Vitamin K epoxide reductase (vitamin K 2,3-epoxide reductase)

SMILES: O=c1oc2ccccc2c(O)c1C1CC(c2ccc(-c3ccccc3)cc2)Oc2ccccc21 (configuration not stated)
- IC50: 40 nM

SMILES: O=c1oc2ccccc2c2c1C1CC(c3ccc(-c4ccccc4)cc3)(Oc3ccccc31)O2 (configuration not stated)
- IC50: 1000 nM
